These results are taken from article PMC9249808, “A novel lipidic peptide with potential to promote balanced effector-regulatory T cell responses” (Scientific Reports, 2022).

One assay relates to Lck-WT protein. Nature of the assay: Lck binding assay (non-cell-based ELISA). Particulars: peptide coated 10 µg/mL in PBS, 4 °C 20 h; Lck-WT (mCherry, c-myc tag) 2 h room temperature, HRP anti myc, 450 nm; duplicate experiments, 3 technical replicates; negative control PBS; Fig. 6b. The protocol:
Lck wild-type (Lck-WT) was prepared in CHO cells. The plasmid for the expression of Lck-WT protein was kindly provided by the research laboratory of Professor Katarina Gaus. The plasmid was encoded for mammalian cell expression of the Lck-WT protein with a C-terminal mCherry reporter. A twin-strep tag was incorporated at the N-terminal of the Lck-WT for purification, and a c-myc epitope tag was placed at the C-terminal, after mCherry for detection of protein expression. A midiprep DNA preparation of the plasmid was performed using the Macherey–Nagel Midi kit as per manufacturer’s instructions. For transient transfections plasmid DNA was transfected into CHO-S cells using 2 μg DNA mL^−1 cells at a concentration of 3 million cells mL^−1. DNA was complexed with polyethylenimine-Pro (PolyPlus) in Opti-Pro serum free medium (Life Technologies) at a DNA (μg) to PEI (μL) ratio of 1:4 (w:v) for 15 min prior to transfecting suspension adapted CHO cells. […]
The peptides, IK14004 and IK14000, were reconstituted into PBS at 1 mg/mL. […] 100 µL of 2 M sulphuric acid was added to stop the reaction and the absorbance values recorded at a wavelength of 450 nm using SpectraMax (Molecular Devices).

Assay [1] concerns CD4+ T cells within PBMC cultures. The assay is described as follows: Intracellular IFN-γ in CD4+ T cells within PBMC cultures (flow cytometry). In kind it is cell-based, human. To be noted: anti-CD3, 24 h, MFI, n = 4, Fig. 5c. The method, then:
(§1) PBMCs were resuspended in RPMI-10 (RPMI-1640; ThermoFisher) supplemented with 10% heat inactivated Foetal Bovine Serum (LabTech), 100 U/mL penicillin, 100 µg/mL streptomycin (ThermoFisher), 2 mM L-glutamine (ThermoFisher), and 50 µM β-mercaptoethanol (ThermoFisher) at 1 × 10^6 cells/mL and plated at a density of 1 × 10^5 per well (100 µL) in 96-well, flat-bottom culture plates. PBMCs were stimulated with 1 µg/mL of soluble anti-CD3 (BioLegend). The lipidic peptide, IK14004, and IK14000, i.e., […] minus conjugation to [{2}Adod]4, were solubilised as a 1 mM stock solution in sterile milliQ water (Lonza) and added to wells at a final volume of 50 µL per well together with soluble anti-CD3 (1 µg/mL final, 50 µL per well) (Biolegend). To test the effect of peptides, cells were cultured for 24–72 h at 37 °C and 5% CO2. Vehicle controls in peptide-based experiments comprised 0.13% sterile milliQ water in culture medium whereas 0.1% DMSO in culture medium was used as vehicle control for comparison with the Lck inhibitor, A-770041, in the absence of peptides. […]
(Flow cytometry measures light scatter and fluorescence of single cells or particles in a stream.)

For assay [2], the system named is CD8+ T cells within PBMC cultures. Nature of the assay: Intracellular IFN-γ in CD8+ T cells within PBMC cultures (flow cytometry). Particulars: anti-CD3, 24 h, MFI, n = 4, Fig. 5d. The class given is cell-based, human. The method, then: as §1

Take RSKAKNPLYR [IK14000]: the “binding to Lck” value in the assay on Lck-WT protein is on record as “no different to the negative control”. For the same sequence, the “intracellular expression of IFN-γ in CD4+ T cells” value in assay [1] was “unchanged”. The “intracellular expression of IFN-γ in CD8+ T cells” value in assay [2] is “unchanged”.
